Earlier results on 1 compound are cited in patent publication US6271232A, “Collagenase-1 and stromelysin-1 inhibitors, pharmaceutical compositions comprising same and methods of their use” (Affymax Technologies, N.V., priority 1999, dated 2001).

SMILES strings stand for the structures.

The target of this data set is rabbit bone proteoglycanase. The following applies: Delaisse et al. (1985).

Usually IC50 stands for the concentration needed to halve the response being measured. For `CNC(=O)[C@H](Cc1ccc(OC)cc1)NC(=O)[C@H](CC(C)C)NC(CCNC(=O)OCc1ccccc1)C(=O)O` (stereo partly drawn) [N-[3-(benzyloxy-carbonyl)amino-1-carboxy-n-propyl]-L-leucyl-O-methyl-L-tyrosine, N-methylamide], the IC50 is 500 nM.
